Experiment [1] has as its system S6K1 phosphorylation on threonine 389. Briefly: S6K1 phosphorylation on threonine 389 in C2C12 myotubes (ELISA). Format: cell-based, mice. The conditions noted are these: LOW AMINO ACID (0.08 mM), Step 1; 100 ng/mL; 2 h; % of untreated control. The method, then: (§1) Growing cells were harvested and plated at a density of 170 000 cells per well in a 6 well plate. Cells were grown for 48 h in 5% CO2 at 37° C. After cells reached 80% confluence, the medium was replaced with differentiating medium (DMEM+2% FBS). After 5 days, myoblasts were fused into multinucleated myotubes. 1 h before starting the experiment, cells were incubated in Krebs medium to deprived cells of amino acids.
(§2) Cells were treated with five preparations of Rhaponticum plant extract at 3 concentrations in the presence of normal (0.8 mM) or low (0.08 mM) concentration of amino acids and with DMSO 0.002% for 2 h.
(§3) At the end of the experiment, cells were lysed in cell lysate buffer (100 μL per well) and centrifuged to isolate the soluble protein in supernatant. Proteins from this cellular assay were quantified using a colorimetric assay derived from LOWRY method. Therefore, 50 μg of total protein in 100 μL lysis buffer were transferred into microwell strips coated with pS6K1 or pAkt antibody and incubated 2 h at 37° C. […] Intensity of the yellow color was readable on a spectrophotometer at 450 nm and directly proportional to pS6K1 or Akt amount detected.
Results of phosphorylated T389 S6 kinase1 is expressed in absorbance per μg of protein (Abs/μg protein) after 2 hrs incubation and in % of untreated control condition (100%). […]
In general terms: In an ELISA, binding on a coated surface is turned into a signal by an enzyme label.

Experiment [2] deals with Akt phosphorylation on threonine 308. The experiment is described as follows: Akt phosphorylation on threonine 308 in C2C12 myotubes (ELISA). Format: cell-based, mice. The conditions noted are these: 100 ng/mL, 2 h. The method, then:
as §1, §2, §3
Results of phosphorylated Akt is expressed in absorbance per μg of protein (Abs/μg protein) after 2 hrs incubation and in % of untreated control condition (100%). […]

Experiment [3] deals with C2C12 myotubes. Briefly: Protein synthesis (tritiated leucine incorporation) in C2C12 myotubes. Format: cell-based, mice. The conditions noted are these: 100 ng/mL. The procedure:
For the protein synthesis assay, growing cells were harvested and plated at a density of 30 000 cells per well in a 24 well plate. Cells were grown for 48 h in 5% CO2 at 37° C. After cells reached 80% confluence, the medium was replaced with differentiating medium (DMEM+2% FBS). After 5 days, myoblasts were fused into multinucleated myotubes. Protein synthesis was determined by measuring the incorporation of the tritiated amino acid leucine. Briefly, 1 h prior leucine challenge, cells were incubated in amino acid free-medium. Then cells were incubated for 2 h30 in the presence of: radiolabelled leucine 5 μCi/mL and IGF1 100 ng/mL or plant extract in the presence of normal (0.8 mM) or low (0.08 mM) concentration of amino acids and with DMSO 0.002%
Five different preparations of Rhaponticum extract at three concentrations were incubated for 2 h30 in the presence of differentiated C2C12 myotubes and tritiated leucine (5 μCi). At the end of the incubation cells were lysed, total soluble proteins were quantified and level of tritiated leucine incorporated into cells was counted. Mean±SEM. *p<0.05; **p<0.01; ***p<0.001 vs control value.
For this study, C2C12 cells were obtained as described in EXAMPLE 12. Protein synthesis assay was performed as described in EXAMPLE 13, except that radiolabelled leucine 5 μCi/mL and IGF1 100 ng/mL, F0 extract at 1, 5 and 10 μg/ml or Rhodiola extract at 10, 104 and 417 μg/ml in the presence of normal (0.8 mM) concentration of amino acids and with DMSO 0.005% were used.
For this study, C2C12 cells were obtained as described in EXAMPLE 12. Protein synthesis assay was performed as described in EXAMPLE 13, except that radiolabelled leucine 5 μCi/mL and IGF1 100 ng/mL, F0 extract at 1 and 10 μg/ml, or Rhodiola extract at 1 and 10 μg/ml or combination of F0 with Rhodiola at different concentrations in the presence of normal (0.8 mM) concentration of amino acids and with DMSO 0.005% was used.
The C2C12 skeletal muscle cells were obtained as in EXAMPLE 12. The protein synthesis assay was performed as in EXAMPLE 13 and 14 except that radiolabelled leucine 5 μCi/mL and IGF1 100 ng/mL, F0 extract at 11.4 and 22.9 μg/ml, or F0 dry extract at 6.5 and 13 μg/ml or F1 extract at 13.4 and 26.7 μg/ml or F5′ extract at 1 and 1.9 μg/ml in the presence of normal (0.8 mM) concentration of amino acids and with DMSO 0.005%. At the end of the experiments supernatants were discarded and cells were lysed in 0.1N sodium hydroxide for 30 min. The cell soluble fraction-associated radioactivity was then counted and protein quantification was determined using the coloric Lowry method.
Each condition is tested in n=6. IGF1 100 ng/ml is used as a positive control of the protein synthesis stimulation and signaling. Results of protein synthesis are expressed in cpm/μL/2.5 hrs and in % of untreated control condition (100%).

In experiment [4] the test system is myostatin gene expression. The experiment is described as follows: Myostatin gene expression in C2C12 myotubes (qPCR). Format: cell-based, mice. The procedure: (§4) For the gene expression assay, growing cells were harvested and plated at a density of 30 000 cells per well in a 24 well plate. Cells were grown for 48 h in 5% CO2 at 37° C. After cells reached 80% confluence, the medium was replaced with differentiating medium (DMEM+2% FBS). After 5 days, myoblasts were fused into multinucleated myotubes.
(§5) Cells were treated with F0 extract at 1 and 10 μg/ml, or Rhodiola extract at 1 and 10 μg/ml or combination of F0 with Rhodiola at different concentrations, for 6 h. At the end of the experiment, C2C12 cells were lyzed in trizol solution and RNA was extracted and purified using the phenol/chloroform method. RNA amount after extraction was quantified by spectrophotometer (260 nm/280 nm/320 nm) and suspended at a final concentration of 1 μg/1 μL. […]
FIGS. 23a, 23b, 24a, and 24b: Effect of co-incubation of Rhaponticum F0 and Rhodiola extracts on myostatin gene expression in C2C12 myotubes. […] At the end of the incubation cells were lysed and RNA was extracted, converted into cDNA to perform a quantitative PCR. […]
Background: In qPCR the cycle at which signal appears reflects the starting amount.

Experiment [5] deals with atrogin gene expression. The experiment is described as follows: Atrogin gene expression in C2C12 myotubes (qPCR). The class given is cell-based, mice. The conditions noted are these: positive control in this experiment. The procedure:
as §4, §5
Combination of Rhaponticum F0 and Rhodiola extracts at two different concentrations each were incubated for 6 h in the presence of differentiated C2C12 myotubes. At the end of the incubation cells were lysed and RNA was extracted, converted into cDNA to perform a quantitative PCR. […]

The subject of experiment [6] is C2C12 myotubes. The conditions noted are these: low or normal concentration of amino acids; literature (Kazi, Broussard); cited from earlier work.
Experiment [7] concerns atrogin gene expression. The conditions noted are these: 24 h incubation, 10 ng/mL; literature (Latres, Stitt); cited from earlier work.

Marks after values point to notes of the source that are not given here.

Results on 1 substance are retold here after patent US10258658B2, “Compositions and methods for improved muscle metabolism” (Naturex SA, priority 2015, dated 2019).

In experiment [1], Insulin like growth factor-1 [IGF-1] displayed a pS6K of 479%**. Also, in experiment [2], the “Akt phosphorylation activated by a factor” value is recorded as 1.6. For the same substance, the protein synthesis with C2C12 myotubes [3] (LOW AMINO ACID (0.08 mM), Step 1, 2 h30, % of untreated control) came to 145%**. Besides, the “induction of protein synthesis vs untreated control” value in the experiment on C2C12 myotubes [3] (step 1, low (0.08 mM) amino acids, DMSO 0.002%) is reported as “+45%”; in the experiment with C2C12 myotubes [3] (step 1, normal (0.8 mM) amino acids, DMSO 0.002%), “+21%”; with C2C12 myotubes [3] (step 2a, normal (0.8 mM) amino acids, DMSO 0.005%) it was “+27%”; with C2C12 myotubes [3] (step 3, normal (0.8 mM) amino acids, DMSO 0.005%), “+25%”. Moreover, the “inhibitory effect on myostatin gene expression” value in experiment [4] (internal data) is 20-40%. The “change in myostatin gene expression vs control” value in experiment [4] (positive control in this experiment) is −25%. In addition, the “change in atrogin gene expression vs control” value in the experiment on atrogin gene expression [5] is reported as −59%. The “increase in protein synthesis” value in the experiment on C2C12 myotubes [6] is recorded as 20-50%. For the same substance, the “inhibition of atrogin gene expression” value in the experiment with atrogin gene expression [7] is on record as “around 40%”.
